Experimental data published in publication PMC8206213, “An L-2-hydroxyglutarate biosensor based on specific transcriptional regulator LhgR” (Nature Communications, 2021).
Values joined by “and” are separate entries in the source; they are usually repeats but may differ in a detail not shown here. Identical values can stand only once.

Test: LHGFR expressed in E. coli BL21(DE3), response to exogenous L-2-HG (time course and dose-response)
Type: cell-based
Details: Fig. 5a
Description: To characterize the sensitivity and specificity of LHGFR expressed in E. coli BL21(DE3), 90 μL cell suspensions following 8 h carbon starvation were mixed with 10 μL increasing concentrations of L-2-HG or other compounds, and then added into a black 96-well plate (total 100 μL/per well), the fluorescence intensities were determined using an EnSight microplate reader (PerkinElmer, USA) and the following instrument settings: excitation at 430 nm, emission at 485 nm (mTFP) and 528 nm (Venus), time intervals of 5 min, the temperature at 37 °C, and shake at 180 rpm.

For `O=C(O)CC[C@H](O)C(=O)O` [L-2-HG, L-2-Hydroxyglutarate], the Emission ratio (0.1 μM L-2-HG, 0 min) was 1.012 and 0.989 and 0.997, the Emission ratio (0.1 μM L-2-HG, 5 min) was 1.02 and 0.9981 and 1.004 and the Emission ratio (0.1 μM L-2-HG, 10 min) was 1.016 and 1.0025 and 1.009. For the same molecule, the Emission ratio (0.1 μM L-2-HG, 15 min) was 1.023 and 1.007 and 1.026, the Emission ratio (0.1 μM L-2-HG, 20 min) was 1.034 and 1.009 and 1.038 and the Emission ratio (0.1 μM L-2-HG, 25 min) was 1.022 and 1.0081 and 1.026. For the same molecule, the Emission ratio (0.1 μM L-2-HG, 30 min) was 1.026 and 1.01 and 1.02, the Emission ratio (0.1 μM L-2-HG, 35 min) was 1.021 and 1.007 and 1.025 and the Emission ratio (0.1 μM L-2-HG, 40 min) was 1.033 and 1.012 and 1.025. The Emission ratio (0.1 μM L-2-HG, 45 min) was 1.028 and 1.004 and 1.026, the Emission ratio (0.1 μM L-2-HG, 50 min) was 1.037 and 1.012 and 1.035 and the Emission ratio (0.1 μM L-2-HG, 55 min) was 1.031 and 1.006 and 1.033. For the same molecule, the Emission ratio (0.1 μM L-2-HG, 60 min) was 1.022 (2×) and 1.012, the Emission ratio (0.1 μM L-2-HG, 65 min) was 1.024 and 1.014 and 1.029 and the Emission ratio (0.1 μM L-2-HG, 70 min) was 1.0212 and 1.016 and 1.02. For the same molecule, the Emission ratio (0.1 μM L-2-HG, 75 min) was 1.025 (2×) and 1.033, the Emission ratio (0.1 μM L-2-HG, 80 min) was 1.031 and 1.009 and 1.021 and the Emission ratio (0.1 μM L-2-HG, 85 min) was 1.0115 and 1.016 and 1.023. For the same molecule, the Emission ratio (0.1 μM L-2-HG, 90 min) was 1.021 (2×) and 1.032, the Emission ratio (1 μM L-2-HG, 0 min) was 0.9972 and 0.975 and 0.9871 and the Emission ratio (1 μM L-2-HG, 5 min) was 1.009 and 0.9962 and 0.9991. The Emission ratio (1 μM L-2-HG, 10 min) was 1.023 and 0.9982 and 1.005, the Emission ratio (1 μM L-2-HG, 15 min) was 1.0208 and 0.9996 and 1.009 and the Emission ratio (1 μM L-2-HG, 20 min) was 1.0328 and 1.012 and 1.019. The Emission ratio (1 μM L-2-HG, 25 min) was 1.021 and 1.008 and 1.022, the Emission ratio (1 μM L-2-HG, 30 min) was 1.0327 and 1.008 (2×) and the Emission ratio (1 μM L-2-HG, 35 min) was 1.03 and 0.9986 and 1.019. For the same molecule, the Emission ratio (1 μM L-2-HG, 40 min) was 1.036 and 1.0055 and 1.012, the Emission ratio (1 μM L-2-HG, 45 min) was 1.034 and 0.9995 and 1.022 and the Emission ratio (1 μM L-2-HG, 50 min) was 1.045 and 1.003 and 1.021. For the same molecule, the Emission ratio (1 μM L-2-HG, 55 min) was 1.024 and 1.003 and 1.034, the Emission ratio (1 μM L-2-HG, 60 min) was 1.027 and 1.003 and 1.025 and the Emission ratio (1 μM L-2-HG, 65 min) was 1.026 and 0.994 and 1.032. The Emission ratio (1 μM L-2-HG, 70 min) was 1.026 and 0.9971 and 1.03, the Emission ratio (1 μM L-2-HG, 75 min) was 1.025 and 1.005 and 1.037 and the Emission ratio (1 μM L-2-HG, 80 min) was 1.033 (2×) and 0.9987. The Emission ratio (1 μM L-2-HG, 85 min) was 1.013 and 1.0091 and 1.026, the Emission ratio (1 μM L-2-HG, 90 min) was 1.034 and 1.005 and 1.032 and the Emission ratio (10 μM L-2-HG, 0 min) was 0.9974 and 0.9749 and 0.9795. The Emission ratio (10 μM L-2-HG, 5 min) was 1.027 and 0.9941 and 0.9973, the Emission ratio (10 μM L-2-HG, 10 min) was 1.031 and 0.9958 and 1.001 and the Emission ratio (10 μM L-2-HG, 15 min) was 1.0289 and 1.0021 and 1.009. The Emission ratio (10 μM L-2-HG, 20 min) was 1.045 and 1 and 1.01, the Emission ratio (10 μM L-2-HG, 25 min) was 1.039 and 0.9977 and 1.015 and the Emission ratio (10 μM L-2-HG, 30 min) was 1.037 and 0.9978 and 1.007. For the same molecule, the Emission ratio (10 μM L-2-HG, 35 min) was 1.04 and 1.003 and 1.015, the Emission ratio (10 μM L-2-HG, 40 min) was 1.03 and 1 and 1.011 and the Emission ratio (10 μM L-2-HG, 45 min) was 1.029 and 1.001 and 1.0118. For the same molecule, the Emission ratio (10 μM L-2-HG, 50 min) was 1.038 and 1.001 and 1.016, the Emission ratio (10 μM L-2-HG, 55 min) was 1.018 and 0.9882 and 1.017 and the Emission ratio (10 μM L-2-HG, 60 min) was 1.019 (2×) and 0.997. The Emission ratio (10 μM L-2-HG, 65 min) was 1.0139 and 0.9961 and 1.023, the Emission ratio (10 μM L-2-HG, 70 min) was 1.0139 and 0.9946 and 1.028 and the Emission ratio (10 μM L-2-HG, 75 min) was 1.017 and 0.9951 and 1.034. For the same molecule, the Emission ratio (10 μM L-2-HG, 80 min) was 1.022 and 0.9886 and 1.029, the Emission ratio (10 μM L-2-HG, 85 min) was 1.023 and 0.9843 and 1.034 and the Emission ratio (10 μM L-2-HG, 90 min) was 1.009 and 0.9801 and 1.033. The Emission ratio (20 μM L-2-HG, 0 min) was 0.9789 and 0.9659 and 0.9802, the Emission ratio (20 μM L-2-HG, 5 min) was 0.9958 and 0.9868 and 0.9915 and the Emission ratio (20 μM L-2-HG, 10 min) was 1.008 and 0.9945 and 0.999. For the same molecule, the Emission ratio (20 μM L-2-HG, 15 min) was 1.027 and 1.004 and 1.005, the Emission ratio (20 μM L-2-HG, 20 min) was 1.024 and 1.0082 and 1 and the Emission ratio (20 μM L-2-HG, 25 min) was 1.026 and 1.013 and 1.0078. The Emission ratio (20 μM L-2-HG, 30 min) was 1.036 and 1.005 and 1.016, the Emission ratio (20 μM L-2-HG, 35 min) was 1.021 and 1.001 and 1.019 and the Emission ratio (20 μM L-2-HG, 40 min) was 1.043 and 1.002 and 1.018. For the same molecule, the Emission ratio (20 μM L-2-HG, 45 min) was 1.041 and 1.009 and 1.022, the Emission ratio (20 μM L-2-HG, 50 min) was 1.04 and 1.006 and 1.0167 and the Emission ratio (20 μM L-2-HG, 55 min) was 1.015 and 1.004 and 1.027. For the same molecule, the Emission ratio (20 μM L-2-HG, 60 min) was 1.0355 and 0.9994 and 1.024, the Emission ratio (20 μM L-2-HG, 65 min) was 1.024 and 1.003 and 1.019 and the Emission ratio (20 μM L-2-HG, 70 min) was 1.023 and 0.9958 and 1.025. For the same molecule, the Emission ratio (20 μM L-2-HG, 75 min) was 1.0243 and 1.007 and 1.0344, the Emission ratio (20 μM L-2-HG, 80 min) was 1.023 and 0.9899 and 1.029 and the Emission ratio (20 μM L-2-HG, 85 min) was 1.012 and 1.001 and 1.028. The Emission ratio (20 μM L-2-HG, 90 min) was 1.022 and 0.9961 and 1.035, the Emission ratio (100 μM L-2-HG, 0 min) was 0.9864 and 0.9735 and 0.9711 and the Emission ratio (100 μM L-2-HG, 5 min) was 1.005 and 0.9924 and 0.9939. For the same molecule, the Emission ratio (100 μM L-2-HG, 10 min) was 1.009 and 1.008 and 1.012, the Emission ratio (100 μM L-2-HG, 15 min) was 1.0245 and 1.016 and 1.019 and the Emission ratio (100 μM L-2-HG, 20 min) was 1.0318 and 1.022 and 1.0268. The Emission ratio (100 μM L-2-HG, 25 min) was 1.0276 and 1.029 and 1.024, the Emission ratio (100 μM L-2-HG, 30 min) was 1.034 and 1.025 and 1.028 and the Emission ratio (100 μM L-2-HG, 35 min) was 1.039 and 1.026 and 1.037. For the same molecule, the Emission ratio (100 μM L-2-HG, 40 min) was 1.0304 and 1.029 and 1.028.
